These results are taken from ChEMBL document CHEMBL1201862, “PubChem BioAssay data set” (2004).

The source made the active and inactive calls.

The target in test [1] is T1, Oxysterols receptor LXR-beta (Homo sapiens, UniProt P55055).
T1 sequence (P55055 whole entry): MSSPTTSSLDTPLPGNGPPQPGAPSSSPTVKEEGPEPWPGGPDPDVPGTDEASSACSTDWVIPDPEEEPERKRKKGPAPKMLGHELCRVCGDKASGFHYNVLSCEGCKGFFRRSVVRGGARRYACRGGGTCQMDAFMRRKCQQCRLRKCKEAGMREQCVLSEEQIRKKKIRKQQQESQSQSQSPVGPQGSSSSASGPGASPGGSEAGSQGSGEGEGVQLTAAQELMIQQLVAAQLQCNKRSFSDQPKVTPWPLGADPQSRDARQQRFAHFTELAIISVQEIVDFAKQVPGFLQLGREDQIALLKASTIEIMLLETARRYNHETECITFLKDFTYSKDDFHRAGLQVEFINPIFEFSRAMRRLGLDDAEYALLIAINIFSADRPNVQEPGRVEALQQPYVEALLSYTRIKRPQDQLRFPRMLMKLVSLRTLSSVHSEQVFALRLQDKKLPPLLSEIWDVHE
The test is classed as functional, cell-based.

Test [2] can be described thus: cells.
The target in test [3] is T2, Heat shock factor protein 1 (Mus musculus, UniProt P38532).
T2 sequence (P38532 whole entry): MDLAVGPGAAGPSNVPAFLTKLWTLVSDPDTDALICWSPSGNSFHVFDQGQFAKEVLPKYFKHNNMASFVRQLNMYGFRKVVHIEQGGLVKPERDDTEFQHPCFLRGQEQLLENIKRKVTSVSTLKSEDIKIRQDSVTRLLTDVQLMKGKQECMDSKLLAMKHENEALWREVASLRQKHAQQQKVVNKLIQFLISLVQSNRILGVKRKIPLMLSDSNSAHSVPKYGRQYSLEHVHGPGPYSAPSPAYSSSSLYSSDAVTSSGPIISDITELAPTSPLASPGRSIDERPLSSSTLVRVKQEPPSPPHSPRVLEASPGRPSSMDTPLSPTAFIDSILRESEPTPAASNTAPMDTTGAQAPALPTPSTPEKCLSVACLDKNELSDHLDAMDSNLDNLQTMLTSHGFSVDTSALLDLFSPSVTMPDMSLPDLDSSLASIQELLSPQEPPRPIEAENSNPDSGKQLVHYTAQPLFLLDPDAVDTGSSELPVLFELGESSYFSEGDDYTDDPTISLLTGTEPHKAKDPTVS
Nature of the test: HSF1 potentiators in luciferase reporter cells, confirmation, cell-based, NIH3T3, luminescence, dose retest (AID 435004).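 Also: stress induced by proteasome inhibitor MG132 added 30 min after compound; luciferase reporter driven by HSF1 response element in NIH3T3 cells; actives raise luminescence as potentiators of the MG132 stress response.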 It is filed as functional.

The target in test [4] is T1, Oxysterols receptor LXR-beta. Nature of the test: LXR agonists, Gal4 luciferase reporter, dose response, counter-screen for ssDAF-12 agonist project, cell-based, luminescence, HEK293, S. stercoralis campaign (AID 720737). The test is classed as functional. As to conditions: read-out: IC50 (the source's name).
Test [5] in a line: Luminescence-based cell-based high throughput dose response assay to identify activators of the DAF-12 from the parasite S. stercoralis (ssDAF-12). It is filed as functional.
Test [6] relates to BJ. Put plainly: cells. Conditions: Homo sapiens. The test is classed as functional, cell-based.
Test [7] is described as follows: cytotoxicity in HPDE-C7 cells, cell-based, fluorescence, HTS (AID 430). The test is classed as functional. Conditions: Homo sapiens.
A short description of test [8]: non-specific cell cytotoxicity, dose response, cytotoxicity control for PAX8 inhibitor project, plate reader, dry powder samples (AID 743021). The test is classed as functional, cell-based.
In test [9] the test system is BJ. Put plainly: cytotoxicity toward BJ-TERT-LT-ST fibroblasts, dose response, cell-based, RAS-independent, luminescence (AID 1935).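 Also: BJ fibroblasts immortalized with TERT plus LT and ST oncogenes.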 It is filed as functional. Conditions: Homo sapiens.
In the next test the target is Paired box protein Pax-8 (Homo sapiens, UniProt Q06710). Put plainly: inhibitors of PAX8-driven TPO luciferase reporter, dose response, RMG-I cells, cherry-pick (AID 687027).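 Also: luciferase reporter driven by Pax8 target thyroperoxidase promoter measured by SteadyGlo luminescence.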 It is filed as functional, cell-based.
Test [10] is described as follows: cytotoxicity toward DRD oncogenic fibroblasts, dose response, cell-based, non-viral oncogenic, luminescence (AID 1934). The test is classed as functional. Conditions: Homo sapiens.
Test [11] can be described thus: cytotoxicity in HEK-293T cells, dose response, cytotoxicity control for TCR NF-kB inhibitor project, luminescence, T-cell screen hits (AID 489026).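 Also: cells exposed to compound about 14 hours before the viability readout.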 It is filed as functional, cell-based.
A short description of test [12]: cytotoxicity in KRAS-transformed pancreatic duct cells, primary screen, cell-based, fluorescence, HTS (AID 431).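 Also: cell line used: HPDE-C7K.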 The test is classed as functional. As to conditions: Homo sapiens.
Test [13] in a line: control 3'UTR Renilla luciferase suppression, dose response, counter-screen for Shn3 inhibitor project, cell-based, Clone20-Shn3RL, cherry-picked (AID 624133). The test is classed as functional.
Test [14] can be described thus: HepG2 cell cytotoxicity, dose response, cytotoxicity control for Shn3 inhibitor project, CellTiter-Glo, cherry-picked (AID 624134). The test is classed as functional, cell-based.
The test system of test [15] is BJ. Put plainly: cytotoxicity toward BJ-TERT fibroblasts, dose response, cell-based, RAS-independent, luminescence (AID 1933). The test is classed as functional. Conditions: Homo sapiens.
A short description of test [16]: Shn3 3'UTR reporter inhibitors, dose response, cell-based, Clone20 osteoblasts, firefly luciferase, cherry-picked (AID 624132).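 Also: firefly luciferase luminescence from reporter carrying the Shn3 3'UTR in osteoblasts.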 The test is classed as functional.
The target in the next test is Beta-galactosidase (Escherichia coli, UniProt Q8VNN2). Nature of the test: beta-galactosidase enzyme inhibitors and activators, dose response, artefact control for CCR6 antagonist project, biochemical, E. coli enzyme, set 3 (AID 504712). It is filed as functional.
A further test has as its system HEK293. Nature of the test: inhibitors of LMP1-driven NF-kB reporter, dose response, cell-based, HEK293, luciferase, cherry-pick (AID 588343). The test is classed as functional. Conditions: Homo sapiens.
Test [17] in a line: ARNT/TACC3 interaction disruptors, potency, confirmation, biochemical, AlphaScreen, cherry-picked samples (AID 651703).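 Also: His-tagged ARNT PAS-B domain paired with GST-TACC3 E629A dimer coactivator fragment; potency of inhibitors that break up the complex and lower AlphaScreen signal.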 It is filed as functional, Homo sapiens.
Test [18] deals with T3, Nuclear receptor subfamily 0 group B member 1 (Homo sapiens, UniProt P51843).
T3 sequence (P51843 whole entry): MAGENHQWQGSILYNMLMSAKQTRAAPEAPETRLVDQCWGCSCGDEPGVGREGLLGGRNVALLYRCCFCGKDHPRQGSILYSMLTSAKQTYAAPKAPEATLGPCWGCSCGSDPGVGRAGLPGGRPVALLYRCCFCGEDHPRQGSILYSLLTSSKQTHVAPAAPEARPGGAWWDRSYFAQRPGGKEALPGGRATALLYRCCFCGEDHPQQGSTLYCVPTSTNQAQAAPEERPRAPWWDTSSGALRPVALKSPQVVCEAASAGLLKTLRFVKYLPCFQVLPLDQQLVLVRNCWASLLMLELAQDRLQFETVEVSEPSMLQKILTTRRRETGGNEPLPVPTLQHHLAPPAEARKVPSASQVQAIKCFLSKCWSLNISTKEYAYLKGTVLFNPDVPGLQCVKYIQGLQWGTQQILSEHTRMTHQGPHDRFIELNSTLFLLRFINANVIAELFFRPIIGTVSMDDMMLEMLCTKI
The test is classed as functional, cell-based.

Test [19] is described as follows: cells. It is filed as functional, cell-based.

Paired box protein Pax-8, sequence (Q06710 whole entry): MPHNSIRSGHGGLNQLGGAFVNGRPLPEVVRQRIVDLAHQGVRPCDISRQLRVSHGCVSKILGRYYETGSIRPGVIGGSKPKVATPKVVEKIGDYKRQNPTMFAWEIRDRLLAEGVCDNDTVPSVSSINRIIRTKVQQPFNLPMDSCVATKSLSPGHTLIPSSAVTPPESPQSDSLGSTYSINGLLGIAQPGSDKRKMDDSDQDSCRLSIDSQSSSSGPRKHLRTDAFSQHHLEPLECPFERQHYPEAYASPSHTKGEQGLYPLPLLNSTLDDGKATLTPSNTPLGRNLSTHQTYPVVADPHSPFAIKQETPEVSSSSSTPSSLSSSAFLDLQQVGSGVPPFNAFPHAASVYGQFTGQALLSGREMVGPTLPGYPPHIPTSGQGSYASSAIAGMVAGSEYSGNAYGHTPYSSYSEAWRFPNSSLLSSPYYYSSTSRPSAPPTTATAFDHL
Beta-galactosidase, sequence (Q8VNN2 whole entry): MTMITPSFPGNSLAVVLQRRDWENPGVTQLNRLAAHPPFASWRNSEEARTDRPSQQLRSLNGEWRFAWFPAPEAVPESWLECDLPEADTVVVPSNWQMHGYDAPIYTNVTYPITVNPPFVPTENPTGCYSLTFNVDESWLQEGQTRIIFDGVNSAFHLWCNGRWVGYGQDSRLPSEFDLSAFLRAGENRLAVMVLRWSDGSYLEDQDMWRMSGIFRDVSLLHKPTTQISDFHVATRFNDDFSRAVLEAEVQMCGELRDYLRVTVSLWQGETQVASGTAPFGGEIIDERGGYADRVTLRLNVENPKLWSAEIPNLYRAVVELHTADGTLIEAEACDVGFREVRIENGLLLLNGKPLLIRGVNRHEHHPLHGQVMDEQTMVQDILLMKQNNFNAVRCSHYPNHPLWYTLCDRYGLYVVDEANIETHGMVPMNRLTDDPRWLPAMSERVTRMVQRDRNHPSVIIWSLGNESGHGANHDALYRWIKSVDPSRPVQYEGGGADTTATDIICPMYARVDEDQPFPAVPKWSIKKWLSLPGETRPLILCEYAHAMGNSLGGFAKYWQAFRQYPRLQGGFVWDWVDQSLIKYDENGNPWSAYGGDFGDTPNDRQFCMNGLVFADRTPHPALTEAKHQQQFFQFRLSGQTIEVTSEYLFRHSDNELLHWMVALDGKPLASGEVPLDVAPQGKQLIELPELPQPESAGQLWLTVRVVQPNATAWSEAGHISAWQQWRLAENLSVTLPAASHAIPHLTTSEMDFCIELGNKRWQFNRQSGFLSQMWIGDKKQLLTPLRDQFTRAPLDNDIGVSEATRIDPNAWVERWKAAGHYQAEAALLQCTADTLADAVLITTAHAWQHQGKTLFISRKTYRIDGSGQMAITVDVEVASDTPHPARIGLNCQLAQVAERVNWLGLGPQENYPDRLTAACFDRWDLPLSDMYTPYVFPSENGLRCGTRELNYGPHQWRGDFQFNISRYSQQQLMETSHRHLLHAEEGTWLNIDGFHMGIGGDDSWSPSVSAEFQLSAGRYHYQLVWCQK

Turning to `Cc1cc(N/C=C/C(=O)c2cccs2)ccc1F`, the EC50 (in test [1]; in the test “cells [2]”) was > 67.6 µM (inactive) in each case.
On to `O=c1[nH][nH]c2cc(=O)n(-c3cccc(C(F)(F)F)c3)nc12`, for which the EC50 is > 260 µM (inactive) in test [3] and > 67.5 µM (inactive) in test [4]. For the same molecule, in test [5], the IC50 was > 67.5 µM (inactive).
As to `COc1cccc(N2CCN(c3ncnc4c3cnn4-c3ccc(C)cc3C)CC2)c1`, the EC50 with BJ [6] was 16.8 µM (active); in test [7], 3.78 µM (active); in the test on BJ [9] it was > 150 µM (inconclusive); in test [10], 11 µM (active); in test [12], 3.17 µM (active); in the test with BJ [15] it was 14.4 µM (active). Further, the AC50 is 17.5 µM (active) in [8]; 6.38 µM (active) at Paired box protein Pax-8; 4.03 µM (active) in test [13]; 37.2 µM (active) in [14]; 4.65 µM (active) in test [16]. For the same molecule, the IC50 in test [11] is 3.73 µM (active).
Take `COc1ccc(-c2nc3ccccn3c2Cl)cc1`: the EC50 in [4] was > 67.6 µM (inactive). Also, the IC50 in test [5] is > 67.6 µM (inactive).
In the case of `COc1ccc(N2C(=O)CC(Sc3nnc(-c4ccccc4)o3)C2=O)cc1` (stereo unspecified), the values for the half-maximal activity concentration (AC50) (in test [8]; on Paired box protein Pax-8; with HEK293) were 44.9 µM (active), 10.4 µM (active) and 19.6 µM (active), respectively. Also, on Beta-galactosidase, the IC50 was > 66.6 µM (inactive).
As for `COc1ccc(-c2oc3cc(O)c(OC)c(O)c3c(=O)c2OC)cc1O` [CENTAUREIDIN], the AC50 in [17] is 101 µM (active). Further, the IC50 in [18] was 35 µM (inactive); in “cells [19]”, > 67.5 µM (inactive).
